Molecular target: human H3 receptor (Homo sapiens, UniProt Q9Y5N1)
Test: H3 Receptor Binding (Human) Method 2, [125I]-iodoproxyfan competitive radioligand binding
Parameters: expressed in transfected cells
Conditions: read-out: Human H3 Ki
Experimental: SK-N-MC cells expressing the human H3 receptor were grown to confluence and tissue culture plates, washed with phosphate-buffered saline, and scraped into 50 mL tubes. After centrifugation, the supernatant was aspirated, and the pellets frozen and stored at −80° C. […] The homogenate was centrifuged at 25000×g for 25 min. […] Reactions were stopped by filtration through GF/B filter plates pre-soaked in 0.3% polyethylenimine and subsequently washed with Tris 50 mM, 5 mM EDTA buffer. Plates were dried for 1 h in a 55° C. oven. Scintillation fluid was added and the radioactivity was counted in a Packard TopCount. Non-specific binding to the H3 receptor was defined by radioactivity that was bound in the presence of 100 μM histamine.
Compounds were tested in their free base or hydrochloride salt forms.

Chain of human H3 receptor (Q9Y5N1 whole entry): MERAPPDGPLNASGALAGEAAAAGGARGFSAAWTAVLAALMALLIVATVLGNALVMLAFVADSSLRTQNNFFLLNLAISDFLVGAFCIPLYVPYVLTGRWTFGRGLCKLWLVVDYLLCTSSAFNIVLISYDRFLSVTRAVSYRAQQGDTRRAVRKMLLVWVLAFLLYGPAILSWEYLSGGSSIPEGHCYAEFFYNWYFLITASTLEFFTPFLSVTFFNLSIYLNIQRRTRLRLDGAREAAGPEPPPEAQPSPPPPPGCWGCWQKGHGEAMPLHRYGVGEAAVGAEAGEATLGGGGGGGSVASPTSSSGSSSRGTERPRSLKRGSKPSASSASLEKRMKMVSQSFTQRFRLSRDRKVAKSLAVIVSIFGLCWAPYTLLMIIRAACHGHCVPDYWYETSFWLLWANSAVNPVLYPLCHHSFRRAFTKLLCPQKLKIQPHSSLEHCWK

Compound	Ki
CC(C)(C)OC(=O)N1C[C@H](Oc2ccccn2)C[C@H]1C(=O)N1CCCN(C2CCC2)CC1 (stereo in doubt) [Example 50, (2S,4R)-2-(4-Cyclobutyl-[1,4]diazepane-1-carbonyl)-4-(pyridin-2-yloxy)-pyrrolidine-1-carboxylic acid tert-butyl ester]	5 nM
Cc1cnc(F)cc1O[C@@H]1C[C@@H](C(=O)N2CCCN(C3CCC3)CC2)N(C(=O)OC(C)(C)C)C1 (stereo in doubt) [Example 51, (2S,4R)-2-(4-Cyclobutyl-[1,4]diazepane-1-carbonyl)-4-(2-fluoro-5-methyl-pyridin-4-yloxy)-pyrrolidine-1-carboxylic acid tert-butyl ester]	2 nM
CC(C)(C)OC(=O)N1CC[C@H](O)[C@H]1C(=O)N1CCCN(C2CCC2)CC1 [Example 3, (2S,3S)-2-(4-Cyclobutyl-[1,4]diazepane-1-carbonyl)-3-hydroxy-pyrrolidine-1-carboxylic acid tert-butyl Ester]	1270 nM
CC(C)(C)OC(=O)N1C[C@@H](O)C[C@@H]1C(=O)N1CCCN(C2CCC2)CC1 [Example 4, (2R,4S)-2-(4-Cyclobutyl-[1,4]diazepane-1-carbonyl)-4-hydroxy-pyrrolidine-1-carboxylic acid tert-butyl Ester]	53 nM
CC(C)(C)OC(=O)N1C[C@H](O)C[C@@H]1C(=O)N1CCCN(C2CC2)CC1 [Example 5, (2R,4R)-2-(4-Cyclopropyl-[1,4]diazepane-1-carbonyl)-4-hydroxy-pyrrolidine-1-carboxylic acid tert-butyl Ester]	1250 nM
CC(C)(C)OC(=O)N1C[C@H](O)C[C@@H]1C(=O)N1CCN(C2CCCC2)CC1 [Example 6, (2R,4R)-2-(4-Cyclopentyl-piperazine-1-carbonyl)-4-hydroxy-pyrrolidine-1-carboxylic acid tert-butyl Ester]	1110 nM
CC(C)(C)OC(=O)N1C[C@H](O)C[C@@H]1C(=O)N1CCCN(C2CCCC2)CC1 [Example 7, (2R,4R)-2-(4-Cyclopentyl-[1,4]diazepane-1-carbonyl)-4-hydroxy-pyrrolidine-1-carboxylic acid tert-butyl Ester]	432 nM
CC(C)(C)OC(=O)N1C[C@H](O)C[C@@H]1C(=O)N1CCCN(C2CCC2)CC1 [Example 8, (2R,4R)-2-(4-Cyclobutyl-[1,4]diazepane-1-carbonyl)-4-hydroxy-pyrrolidine-1-carboxylic acid tert-butyl Ester]	534 nM
O=C([C@H]1C[C@@H](O)CN1C(=O)OCc1ccccc1)N1CCCN(C2CCC2)CC1 [Example 9, (2R,4R)-2-(4-Cyclobutyl-[1,4]diazepane-1-carbonyl)-4-hydroxy-pyrrolidine-1-carboxylic Acid Benzyl Ester]	50 nM
CC(=O)N1C[C@@H](O)C[C@@H]1C(=O)N1CCCN(C2CCC2)CC1 [Example 10, (2R,4S)-1-[2-(4-Cyclobutyl-[1,4]diazepane-1-carbonyl)-4-hydroxy-pyrrolidin-1-yl]-ethanone]	115 nM
CN(C)[C@@H]1CCN(C(=O)[C@H]2C[C@H](Oc3cccc(F)c3)CN2C(=O)OC(C)(C)C)C1 [Example 37, (2R,4S)-2-((3R)-3-Dimethylamino-pyrrolidine-1-carbonyl)-4-(3-fluoro-phenoxy)-pyrrolidine-1-carboxylic acid tert-butyl ester]	> 10000 nM
CC(C)(C)OC(=O)N1C[C@@H](Oc2cccc(F)c2)C[C@@H]1C(=O)N1CCC(N2CCCC2)C1 (stereo partly drawn) [Example 39, (2R,4S)-2-([1,3′]Bipyrrolidinyl-1′-carbonyl)-4-(3-fluoro-Phenoxy)-pyrrolidine-1-carboxylic acid tert-butyl ester]	43 nM
CN(C)C1CCN(C(=O)[C@H]2C[C@H](Oc3ccc(F)cc3)CN2C(=O)OC(C)(C)C)CC1 [Example 40, (2R,4S)-2-(4-Dimethylamino-piperidine-1-carbonyl)-4-(4-fluoro-phenoxy)-pyrrolidine-1-carboxylic acid tert-butyl ester]	1240 nM
Cc1cnc(O[C@H]2C[C@H](C(=O)N3CCCN(C4CCC4)CC3)N(C(=O)OC(C)(C)C)C2)cc1I [Example 52, (2R,4S)-2-(4-Cyclobutyl-[1,4]diazepane-1-carbonyl)-4-(4-iodo-5-methyl-pyridin-2-yloxy)-pyrrolidine-1-carboxylic acid tert-butyl ester]	8 nM

Results, then the molecule that gave them:

Ki	Compound
126 nM	CC(C)(C)OC(=O)N1C[C@@H](Oc2ccccc2)C[C@H]1C(=O)N1CCCN(C2CCC2)CC1 [Example 14, (2S,4S)-2-(4-Cyclobutyl-[1,4]diazepane-1-carbonyl)-4-phenoxy-pyrrolidine-1-carboxylic acid tert-butyl ester]
7 nM	CSc1ccc(O[C@H]2C[C@H](C(=O)N3CCCN(C4CCC4)CC3)N(C(=O)OC(C)(C)C)C2)cc1 [Example 23, (2R,4S)-2-(4-Cyclobutyl-[1,4]diazepane-1-carbonyl)-4-(4-methylsulfanyl-phenoxy)-pyrrolidine-1-carboxylic acid tert-butyl ester]
4 nM	Cc1cc(O[C@H]2C[C@H](C(=O)N3CCCN(C4CCC4)CC3)N(C(=O)OC(C)(C)C)C2)ccc1Cl [Example 24, (2R,4S)-4-(4-Chloro-3-methyl-phenoxy)-2-(4-cyclobutyl-[1,4]diazepane-1-carbonyl)-pyrrolidine-1-carboxylic acid tert-butyl ester]
5 nM	CC(C)(C)OC(=O)N1C[C@@H](Oc2ccc(S(C)(=O)=O)cc2)C[C@@H]1C(=O)N1CCCN(C2CCC2)CC1 [Example 25, (2R,4S)-2-(4-Cyclobutyl-[1,4]diazepane-1-carbonyl)-4-(4-methanesulfonyl-phenoxy)-pyrrolidine-1-carboxylic acid tert-butyl ester]
12 nM	COc1cccc(O[C@H]2C[C@H](C(=O)N3CCCN(C4CCC4)CC3)N(C(=O)OC(C)(C)C)C2)c1 [Example 26, (2R,4S)-2-(4-Cyclobutyl-[1,4]diazepane-1-carbonyl)-4-(3-methoxy-phenoxy)-pyrrolidine-1-carboxylic acid tert-butyl ester]
7 nM	CC(C)(C)OC(=O)N1C[C@@H](Oc2ccc(C(F)(F)F)cc2)C[C@@H]1C(=O)N1CCCN(C2CCC2)CC1 [Example 28, (2R,4S)-2-(4-Cyclobutyl-[1,4]diazepane-1-carbonyl)-4-(4-trifluoromethyl-phenoxy)-pyrrolidine-1-carboxylic acid tert-butyl ester]
8 nM	Cc1ccc(O[C@H]2C[C@H](C(=O)N3CCCN(C4CCC4)CC3)N(C(=O)OC(C)(C)C)C2)cc1 [Example 29, (2R,4S)-2-(4-Cyclobutyl-[1,4]diazepane-1-carbonyl)-4-p-tolyloxy-pyrrolidine-1-carboxylic acid tert-butyl ester]
8 nM	Cc1ccccc1O[C@H]1C[C@H](C(=O)N2CCCN(C3CCC3)CC2)N(C(=O)OC(C)(C)C)C1 [Example 30, (2R,4S)-2-(4-Cyclobutyl-[1,4]diazepane-1-carbonyl)-4-o-tolyloxy-pyrrolidine-1-carboxylic acid tert-butyl ester]
15 nM	CC(C)(C)OC(=O)N1C[C@@H](Oc2ccc(F)cc2)C[C@@H]1C(=O)N1CCCN(C2CC2)CC1 [Example 31, (2R,4S)-2-(4-Cyclopropyl-[1,4]diazepane-1-carbonyl)-4-(4-fluoro-phenoxy)-pyrrolidine-1-carboxylic acid tert-butyl ester]
10 nM	CC(C)(C)OC(=O)N1C[C@@H](Oc2ccc(C#N)cc2)C[C@@H]1C(=O)N1CCCN(C2CC2)CC1 [Example 32, (2R,4S)-4-(4-Cyano-phenoxy)-2-(4-cyclopropyl-[1,4]diazepane-1-carbonyl)-pyrrolidine-1-carboxylic acid tert-butyl ester]
24 nM	CC(C)(C)OC(=O)N1C[C@@H](Oc2ccc(F)cc2)C[C@@H]1C(=O)N1CCN(C2CCCC2)CC1 [Example 33, (2R,4S)-2-(4-Cyclopentyl-piperazine-1-carbonyl)-4-(4-fluoro-phenoxy)-pyrrolidine-1-carboxylic acid tert-butyl ester]
14 nM	CC(C)(C)OC(=O)N1C[C@@H](Oc2ccc(C#N)cc2)C[C@@H]1C(=O)N1CCN(C2CCCC2)CC1 [Example 34, (2R,4S)-4-(4-Cyano-phenoxy)-2-(4-cyclopentyl-piperazine-1-carbonyl)-pyrrolidine-1-carboxylic acid tert-butyl ester]
2 nM	CC(C)(C)OC(=O)N1C[C@@H](Oc2ccc(F)cc2)C[C@@H]1C(=O)N1CCCN(C2CCCC2)CC1 [Example 35, (2R,4S)-2-(4-Cyclopentyl-[1,4]diazepane-1-carbonyl)-4-(4-fluoro-phenoxy)-pyrrolidine-1-carboxylic acid tert-butyl ester]
3 nM	CC(C)(C)OC(=O)N1C[C@@H](Oc2ccc(C#N)cc2)C[C@@H]1C(=O)N1CCCN(C2CCCC2)CC1 [Example 36, (2R,4S)-4-(4-Cyano-phenoxy)-2-(4-cyclopentyl-[1,4]diazepane-1-carbonyl)-pyrrolidine-1-carboxylic acid tert-butyl ester]
14 nM	CC(C)(C)OC(=O)N1C[C@H](Oc2ccccc2)C[C@H]1C(=O)N1CCCN(C2CCC2)CC1 [Example 48, (2S,4R)-2-(4-Cyclobutyl-[1,4]diazepane-1-carbonyl)-4-phenoxy-pyrrolidine-1-carboxylic acid tert-butyl ester]
6 nM	CC(C)(C)OC(=O)N1C[C@H](Oc2cccc(F)c2)C[C@H]1C(=O)N1CCCN(C2CCC2)CC1 [Example 49, (2S,4R)-2-(4-Cyclobutyl-[1,4]diazepane-1-carbonyl)-4-(3-fluoro-phenoxy)-pyrrolidine-1-carboxylic acid tert-butyl ester]
2 nM	CC(C)(C)OC(=O)N1C[C@@H](Oc2cccnc2)C[C@@H]1C(=O)N1CCCN(C2CCC2)CC1 [Example 53, (2R,4S)-2-(4-Cyclobutyl-[1,4]diazepane-1-carbonyl)-4-(pyridin-3-yloxy)-pyrrolidine-1-carboxylic acid tert-butyl ester]
11 nM	CC(C)(C)OC(=O)N1C[C@@H](Oc2ccsc2)C[C@@H]1C(=O)N1CCCN(C2CCC2)CC1 [Example 54, (2R,4S)-2-(4-Cyclobutyl-[1,4]diazepane-1-carbonyl)-4-(thiophen-3-yloxy)-pyrrolidine-1-carboxylic acid tert-butyl ester]

Source: patent US8236792B2, “Substituted pyrrolidine amides as modulators of the histamine H3 receptor” (Janssen Pharmaceutica NV, priority 2008, dated 2012)
